Experimental data: ChEMBL document CHEMBL1938252, “Structure-based optimization of morpholino-triazines as PI3K and mTOR inhibitors” (Bioorg Med Chem Lett, 2012)

How the values were obtained:
[1] = target: T1, Serine/threonine-protein kinase mTOR (Homo sapiens, UniProt P42345); assay: Inhibition of mTOR
[2] = Selectivity ratio of IC50 for PI3Kaplha to IC50 for mTOR
[3] = target: Phosphatidylinositol 4,5-bisphosphate 3-kinase catalytic subunit alpha isoform (Homo sapiens, UniProt P42336); assay: Inhibition of PI3Kalpha
[4] = target: T1, Serine/threonine-protein kinase mTOR; assay: Inhibition of mTOR-mediated p70S6K phosphorylation at Thr389 in human PC3 cells; type: cell-based, PC-3

Sequence of Phosphatidylinositol 4,5-bisphosphate 3-kinase catalytic subunit alpha isoform (P42336 whole entry, canonical isoform): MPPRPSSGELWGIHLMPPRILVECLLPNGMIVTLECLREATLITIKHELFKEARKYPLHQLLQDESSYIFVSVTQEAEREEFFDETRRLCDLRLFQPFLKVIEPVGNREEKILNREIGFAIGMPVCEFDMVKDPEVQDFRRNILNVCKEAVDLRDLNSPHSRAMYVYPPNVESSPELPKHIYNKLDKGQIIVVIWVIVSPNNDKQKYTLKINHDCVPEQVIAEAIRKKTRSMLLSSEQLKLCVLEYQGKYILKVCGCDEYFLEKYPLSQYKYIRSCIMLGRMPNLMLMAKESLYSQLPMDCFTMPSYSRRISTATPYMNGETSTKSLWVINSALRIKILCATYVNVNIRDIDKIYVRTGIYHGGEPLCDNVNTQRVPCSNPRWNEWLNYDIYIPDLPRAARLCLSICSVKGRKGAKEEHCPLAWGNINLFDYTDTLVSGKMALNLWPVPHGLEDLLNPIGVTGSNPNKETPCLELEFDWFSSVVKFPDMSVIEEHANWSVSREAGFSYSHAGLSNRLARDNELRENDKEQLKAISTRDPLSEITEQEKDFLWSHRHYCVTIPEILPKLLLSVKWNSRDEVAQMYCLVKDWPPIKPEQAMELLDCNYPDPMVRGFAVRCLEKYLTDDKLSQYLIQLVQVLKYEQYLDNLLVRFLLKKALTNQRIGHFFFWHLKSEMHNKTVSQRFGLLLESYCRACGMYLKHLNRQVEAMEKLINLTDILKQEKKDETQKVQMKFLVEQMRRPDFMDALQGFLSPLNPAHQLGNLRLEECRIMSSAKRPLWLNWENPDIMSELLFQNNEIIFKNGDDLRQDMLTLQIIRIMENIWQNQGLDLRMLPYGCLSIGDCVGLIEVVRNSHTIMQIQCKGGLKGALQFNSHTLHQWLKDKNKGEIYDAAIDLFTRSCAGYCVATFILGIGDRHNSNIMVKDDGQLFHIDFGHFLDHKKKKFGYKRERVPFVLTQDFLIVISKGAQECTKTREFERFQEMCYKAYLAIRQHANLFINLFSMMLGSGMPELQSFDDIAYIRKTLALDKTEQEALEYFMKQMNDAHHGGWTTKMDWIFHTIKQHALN

Row | IC50 [1] | Ratio IC50 [2] | IC50 [3] | IC50 [4] | Structure (SMILES)
1 | 420 nM | 0.06 | 25 nM | – | Cc1nccn1-c1nc(-c2cnc(N)nc2)nc(N2CCOCC2)n1
2 | 350 nM | – | – | – | FC(F)c1nc2ccccc2n1-c1nc(N2CCOCC2)nc(N2CCOCC2)n1 [ZSTK-474]
3 | 26 nM | 3.4 | 89 nM | 96 nM | CCc1nccn1-c1nc(-c2cccc3[nH]ccc23)nc(N2CCOCC2)n1
4 | 71 nM | 57 | 4050 nM | 490 nM | CCc1cc(C(F)(F)F)nn1-c1nc(-c2cccc3[nH]ccc23)nc(N2CCOCC2)n1
5 | 570 nM | 4.9 | 2800 nM | – | Clc1cccc(Nc2nc(N3CCOCC3)nc(-n3cccn3)n2)c1
6 | 95 nM | 0.6 | 53 nM | – | Cc1nccn1-c1nc(-c2cccc(O)c2)nc(N2CCOCC2)n1
7 | 18 nM | 60 | 1100 nM | 84 nM | Cc1ccc(-c2nc(N3CCOCC3)nc(-n3ccnc3C)n2)c2cc[nH]c12
